Experimental findings from patent EP3502093A1, “ZWITTERIONIC PILLARARENE DERIVATIVE” (Freie Universität Berlin, priority 2017, dated 2019) are described below.

Assay [1] relates to E. coli biofilm. Kind of assay: prolonged incubation (24 h, 72 h, 120 h) of 1-day pre-fabricated biofilm, regrowth and resistance. It counts as cell-based. Particulars: 1-day biofilm, 200 nM. The method, then:
Biofilms are considered to be highly resistant to antibacterial agents due to restricted penetration of antibacterial agents into biofilms, slow growth owing to nutrient limitation, expression of genes involved in the general stress response, and emergence of a biofilm-specific phenotype. Thus, it is important to investigate the emergence of resistances against a new antibacterial agent used for combating biofilms. Therefore, ZW-PA nanoparticles in a concentration of 200 nM were applied to a biofilm pre-fabricated for 1 day. Subsequently, the biofilm was incubated with ZW-PA nanoparticles and investigated after 1 day incubation (24 h, cultivated 1 + 1 days), after 3 days incubation (72 h, cultivated 1 + 3 days), and after 5 days incubation (120 h, cultivated 1 + 5 days). PBS and 200 nM ampicillin were used as controls. The scale bars in all plots of Figure 3 represent 50 µm.

Assay [2] concerns E. coli biofilm. Briefly: treatment of pre-fabricated biofilms of different stages for 24 h, LIVE/DEAD staining. It counts as cell-based. Conditions: 200 nM, treated 24 h. The method, then: As depicted in Figure 2, E. coli biofilm in different stages - namely, in colony formation stage (1 day growth ["cultivated 1 + 1 days"]) and in maturation stages (3 days growth ["cultivated 1 + 3 days"] or 5 days growth ["cultivated 1 + 5 days"], respectively), were pre-fabricated according to literature^16 and then treated with a dose of 200 nM ZW-PA nanoparticles, 200 nM ampicillin or PBS for another 24 h. Afterwards, the resulting biofilms on the 2nd day, the 4th day and the 6th day were observed. A LIVE/DEAD staining of the E. coli cells was applied. By this staining, living cells are stained green, while dead cells are stained red. […] Specifically, the biofilm height increased from 8 µm on the 2nd day (1st + 1 day) to 25 µm on the 6th day (1st + 5 days). Only green (living) cells could be observed. The scale bars in all plots of Figure 2 represent 50 µm.

[3] abbreviates: biofilm grown 1 day (1 + 1 days).
[4] abbreviates: biofilm grown 5 days (1 + 5 days).

SMILES strings stand for the structures.

Take `CC1(C)S[C@@H]2[C@H](NC(=O)[C@H](N)c3ccccc3)C(=O)N2[C@H]1C(=O)O` [ampicillin]: the “LIVE/DEAD staining, killing of cells in biofilm” value is “a part of the cells could be killed” in assay [1] (24 h incubation (1 + 1 days)); “less than the half of the cells, were stained red” in assay [2] (setting [3]); “most of the cells were still alive” in assay [2] (biofilm grown 3 days (1 + 3 days)); “effective only against the cells on the surface layer of the biofilm” in assay [2] (setting [4]). Further, the “LIVE/DEAD staining, living versus dead cells” value is on record as “more green than red cells” in assay [1] (72 h incubation (1 + 3 days)) and “more red than green cells” in assay [1] (120 h incubation (1 + 5 days)). Also, the “cell density and reformation of the biofilm on further incubation” value in assay [1] (further incubated to 72 h and 120 h) was “the biofilm could gradually reform”. The results for the biofilm height in assay [2] (setting [3]) and in assay [2] (setting [4]) were 5 µm and 24 µm, respectively.
